The target in experiment [1] is T1, GppNHp-loaded KRAS4b (amino acids 1-169) G12C/C118S protein (Homo sapiens, UniProt P01116, C118S/G12C).
T1 construct: KRAS4b (amino acids 1-169) G12C/C118S protein; made in house
The experiment in a line: Covalent cysteine 12 modification by MALDI-TOF MS, GppNHp-loaded KRAS G12C. The format is binding. The note with it: 15 minutes reaction time point. An outline of the steps:
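Covalent labelling is scored at 15 min by MALDI-TOF mass spectrometry, using 1 μM protein with compound at a 1:2.5 protein-to-compound ratio at room temperature.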

The subject of another experiment is pERK in NCI-H358 cells. The experiment in a line: Cell-based pERK HTRF assay (pERK inhibition in H358 cells). Conditions: 30 min incubation. An outline of the steps: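 NCI-H358 cells were seeded at 4×10^4 cells/well in RPMI/10% FBS, then treated next day for 30 min at 0.25% DMSO (9-point, 3-fold series from 75 μM). Lysates were read by HTRF (d2/Eu cryptate antibody pair, 615 nm emission) after 4–24 h at room temperature to give pERK IC50.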
On the technique in general: Time-resolved FRET reads energy transfer from a long-lived donor to a nearby acceptor.

Bounds are passed on as bounds.

Consider `C=CC(=O)N1CC[C@@H](N(CC)c2nc(OC[C@@H]3CC4(CC4)CN3C)nc3c(F)c(-c4ccc(F)c5sc(N)c(C#N)c45)c(Cl)cc23)[C@H]1C` [Compound 75], for which, in experiment [1], the “GppNHp-KRAS G12C percent of modification” value was “A (percent of modification ≥70%)”. In addition, the IC50 (commonly the concentration at which inhibition is half-maximal) in the experiment on pERK in NCI-H358 cells was below 100 nM.
In the case of `C=CC(=O)N1CC[C@@H](N(CC)c2nc(OC[C@@]34CCCN3C[C@H](F)C4)nc3cc(-c4ccc(F)c5sc(N)c(C#N)c45)c(F)cc23)[C@H]1CC` [Compound 76], the “GppNHp-KRAS G12C percent of modification” value in experiment [1] was “A (percent of modification ≥70%)”. In the experiment on pERK in NCI-H358 cells (Homo sapiens, NCI-H358, 0.5 h), this compound returned an IC50 of 100 to 1000 nM.
`C=CC(=O)N1CC[C@@H](N(CC)c2nc(OC[C@@]34CCCN3C[C@H](F)C4)nc3c(F)c(-c4ccc(F)c5sc(N)c(C#N)c45)c(Cl)cc23)[C@@H]1C` [Compound 77]: in experiment [1], the “GppNHp-KRAS G12C percent of modification” value is “A (percent of modification ≥70%)”. This compound came in with an IC50 with pERK in NCI-H358 cells (Homo sapiens, NCI-H358, 0.5 h) below 100 nM.
Consider `C=CC(=O)N1CC[C@@H](N(C)c2nc(OC[C@@]34CCCN3C[C@H](F)C4)nc3c(F)c(-c4nc(N)cc(C)c4C(F)(F)F)c(Cl)cc23)[C@H]1C` [Compound 78, 1-[(2R,3R)-3-[[7-[6-amino-4-methyl-3-(trifluoromethyl)-2-pyridyl]-6-chloro-8-fluoro-2-[[(2R,8S)-2-fluoro-1,2,3,5,6,7-hexahydropyrrolizin-8-yl]methoxy]quinazolin-4-yl]-methyl-amino]-2-methyl-pyrrolidin-1-yl]prop-2-en-1-one], for which the “GppNHp-KRAS G12C percent of modification” value in experiment [1] is given as “A (percent of modification ≥70%)”. In the experiment on pERK in NCI-H358 cells (Homo sapiens, NCI-H358, 0.5 h), this compound returned a concentration for half-maximal inhibition (IC50) below 100 nM.
For `C=CC(=O)N1CC[C@@H](N(C)c2nc(OC[C@@H]3C[C@@H](OC)CN3C)nc3c(F)c(-c4ccc(F)c5sc(N)c(C#N)c45)c(Cl)cc23)[C@@H]1C` [Compound 79], in that order: “A (percent of modification ≥70%)” and below 100 nM.
The corresponding values for `C=CC(=O)N1CC[C@@H](N(C)c2nc(N3CC(N(C)C)C3)nc3c(F)c(-c4ccc(F)c5sc(N)c(C#N)c45)c(C(F)(F)F)cc23)[C@H]1C` [Compound 80] are “B (50≤percent of modification <70%)” and 100 to 1000 nM.
The corresponding values for `C=CC(=O)N1CC[C@@H](N(C)c2nc(OC[C@@H]3C[C@@H](F)CN3C)nc3c(F)c(-c4ccc(F)c5sc(N)c(C#N)c45)c(Cl)cc23)[C@@H]1C` [Compound 82] are “A (percent of modification ≥70%)” and below 100 nM.
In the case of `C=CC(=O)N1CC[C@@H](N(C)c2nc(OC[C@@H]3CCCN3C)nc3c(F)c(-c4ccc(F)c5sc(N)c(C#N)c45)c(Cl)cc23)[C@@H]1C` [Compound 83], the “GppNHp-KRAS G12C percent of modification” value in experiment [1] is listed as “A (percent of modification ≥70%)”. In the experiment with pERK in NCI-H358 cells (Homo sapiens, NCI-H358, 0.5 h), this compound displayed an IC50 below 100 nM.
The corresponding values for `C=CC(=O)N1CC[C@@H](N(C)c2nc(OC[C@@H]3CCCN3CC)nc3c(F)c(-c4ccc(F)c5sc(N)c(C#N)c45)c(Cl)cc23)[C@@H]1C` [Compound 84] are “A (percent of modification ≥70%)” and below 100 nM.
The corresponding values for `C=CC(=O)N1CC[C@@H](N(CC)c2nc(OC[C@@]34CCCN3C[C@H](F)C4)nc3c(F)c(-c4ccc(F)c5sc(N)c(C#N)c45)c(C(F)(F)F)cc23)[C@@H]1C` [Compound 86] are “A (percent of modification ≥70%)” and below 100 nM.
The corresponding values for `C=CC(=O)N1CC[C@@H](N(C)c2nc(OCC3(CN4CCOCC4)CC3)nc3c(F)c(-c4ccc(F)c5sc(N)c(C#N)c45)c(C(F)(F)F)cc23)[C@H]1C` [Compound 87] are “C (10%≤percent of modification <50%)” and below 100 nM.
As to `C=CC(=O)N1CC[C@@H](N(C)c2nc(OC[C@@]34CCCN3C[C@H](F)C4)nc3c(F)c(-c4ccc(F)c5oc(N)c(C#N)c45)c(C(F)(F)F)cc23)[C@H]1C` [Compound 90], the “GppNHp-KRAS G12C percent of modification” value in experiment [1] is “B (50≤percent of modification <70%)”. The compound also returned an IC50 in the experiment on pERK in NCI-H358 cells (Homo sapiens, NCI-H358, 0.5 h) below 100 nM.
For the compound `C=CC(=O)N1CC[C@@H](N(C)c2nc(OC[C@@]34CCCN3C[C@H](F)C4)nc3c(F)c(-c4nc(N)cc(C)c4C(F)(F)F)c(C(F)(F)F)cc23)[C@@H]1C` [Compound 91], the “GppNHp-KRAS G12C percent of modification” value in experiment [1] is recorded as “A (percent of modification ≥70%)”. The IC50 with pERK in NCI-H358 cells (Homo sapiens, NCI-H358, 0.5 h) is below 100 nM.
The corresponding values for `C=CC(=O)N1CC[C@@H](N(C)c2nc(OC[C@@H]3CC4(CC4)CN3CC)nc3c(F)c(-c4ccc(F)c5sc(N)c(C#N)c45)c(Cl)cc23)[C@@H]1C` [Compound 92] are “A (percent of modification ≥70%)” and below 100 nM.
The corresponding values for `C=CC(=O)N1CC[C@@H](N(C)c2nc(OC[C@@H]3CC4(CC4)CN3CC)nc3c(F)c(-c4ccc(F)c5sc(N)c(C#N)c45)c(C(F)(F)F)cc23)[C@@H]1C` [Compound 95] are “A (percent of modification ≥70%)” and below 100 nM.
The corresponding values for `C=CC(=O)N1CC[C@@H](N(C)c2nc(OC[C@@H]3CC4(CC4)CN3CC)nc3c(F)c(-c4ccc(F)c5sc(N)c(C#N)c45)c(Cl)cc23)[C@H]1C` [Compound 97] are “A (percent of modification ≥70%)” and below 100 nM.
Consider `C=CC(=O)N1CC[C@@H](N(C)c2nc(OC[C@@H]3C[C@@H](F)CN3CC)nc3c(F)c(-c4ccc(F)c5sc(N)c(C#N)c45)c(Cl)cc23)[C@H]1C` [Compound 98], for which the “GppNHp-KRAS G12C percent of modification” value in experiment [1] is listed as “D (percent of modification <10%)”. The same compound registered an IC50 in the experiment with pERK in NCI-H358 cells (Homo sapiens, NCI-H358, 0.5 h) of 100 to 1000 nM.
Take `C=CC(=O)N1CC[C@@H](N(C)c2nc(OC[C@@H]3C[C@@H](OC)CN3CC)nc3c(F)c(-c4ccc(F)c5sc(N)c(C#N)c45)c(Cl)cc23)[C@H]1C` [Compound 99]: in experiment [1], the “GppNHp-KRAS G12C percent of modification” value is “A (percent of modification ≥70%)”. The compound further displayed an IC50 with pERK in NCI-H358 cells (Homo sapiens, NCI-H358, 0.5 h) below 100 nM.
In the case of `C=CC(=O)N1CC[C@@H](N(C)c2nc(OC[C@@H]3C[C@@H](OC)CN3CC)nc3c(F)c(-c4ccc(F)c5sc(N)c(C#N)c45)c(Cl)cc23)[C@@H]1C` [Compound 100], the “GppNHp-KRAS G12C percent of modification” value in experiment [1] is recorded as “A (percent of modification ≥70%)”. The compound also had an IC50 with pERK in NCI-H358 cells (Homo sapiens, NCI-H358, 0.5 h) below 100 nM.

The record behind these values is US20260232666A1, “COMPOSITIONS AND METHODS FOR INHIBITION OF RAS” (TheRas, Inc., priority 2023, published 2026).
